Test results reported in patent publication US20200361987A1, “DEUTERATED TETRAPEPTIDES THAT TARGET MITOCHONDRIA” (STEALTH BIOTHERAPEUTICS CORP., priority 2017, published 2020).
Values joined by “and” are separate entries in the source; they are usually repeats but may differ in a detail not shown here. Equal entries are not always repeated. Square brackets hold non-standard residues; d marks the D form. Peptide text beside a SMILES is read from it. Dmt = Cc1cc(O)cc(C)c1C[C@H](N)C(=O)O

How the values were obtained:
[1] = test system: CL:DOPC 1:3 liposomes (cardiolipin); experiment: Isothermal titration calorimetry (ITC) of test compound into CL:DOPC liposomes; assay type: binding; conditions: 20 mM HEPES pH 7.4
Method: Example 18: Isothermal Titration Calorimetry (ITC) Study
1. Preparation of CL:DOPC 1:3 Liposomes (CL Concentration 0.1 mM)
146 μl of cardiolipin solution (5.1 mg/mL in EtOH, Sigma-Aldrich, C1649-10MG) were mixed with 1.2 mg 0.05 mg (exact weight, see Table 1) of DOPC (Avanti Polar Lipids, 850375P) and 20 mM HEPES buffer pH=7.4. Resulting solution was diluted up to 5 mL with the same buffer, vortexed for 2 min and sonicated in bath sonicator for 30 min at room temperature. Liposomes were produced by manual extrusion (Avestin, The LiposoFast-Stabilizer with a LiposoFast-Basic) through a 100 nm filter (Avestin, PC membranes 0.1 m or Avanti Polar Lipids, PC membranes 0.1 μm, 610005). Extrusion was performed for 21 times. EtOH concentration in sample is 2.9%. Obtained CL:DOPC solutions were tested for homogeneity by DLS (Malvern Instruments Ltd, Zetasizer Nano ZSP, instrument with Malvern Instruments Ltd software 7.11) using the following parameters—medium: water; refractive index: 1.33; viscosity: 0.8872 cP; temperature: 25° C.; nanoparticles: liposomes; refractive index of materials: 1.60; detection angle of 173°, a wavelength of 633 nm. All measurements were performed in triplicate.
2. Preparation of Test Compound Solutions
2 mg or 14 mg (exact weight, see Table 1) of test compound were dissolved in 20 mM HEPES buffer (pH=7.4, contains 2,9% (V/V) of EtOH) to obtain 0.7 mM concentration (for exact volumes see Table 3). Obtained solution was vortexed for 2 min.
3. ITC Titration Experiments
Instrument cell was washed and purged with ≈100 μL of CL:DOPC liposomes solution. After washing cell was filled with CL:DOPC liposomes solution. Injection syringe was loaded with test compound solution. Injection volumes were set to values shown in Table 2 and DP values were set to 2.5 μcal/sec in all experiments. Time between injections—105 seconds. Titration of each compound is performed in triplicate, results are reported as mean value±standard deviation (see Table 4).

[2] = Rat PK study, intravenous administration, plasma; assay type: in vivo; conditions: intravenous 1 mg/kg; for AUC(0-inf): read-out: AUCINF_obs; for clearance: read-out: Cl_obs; for Vd: read-out: Vss_obs
Method: General Methods and Procedures of Rat PK Studies (Aptuit)
All test formulations will be prepared on the day of administration prior to dosing and used as soon as possible. All test formulations will be stored at room temperature, prior to administration.
The dose formulation(s) will be prepared and administered by volume. The target dose levels are detailed below:
Test substances discrete doses will be formulated in saline water at the final concentration of 0.5 mg/mL and intravenously administered at the volume of 2 mL/kg to rats.
Actual body weights of animals will be recorded on the day of dose administration. Doses volumes will be adjusted taking into account the weight of the animal at the time of dose administration. Doses formulations will be administered intravenously via tail vein (2 mL/kg); an aliquot of each dose formulation will be taken before administration. The actual dose received by each animal will be registered and residual volumes discarded.
After administration, serial blood samples will be collected from the lateral tail vein of each rat, then animals will be sacrificed humanely. Approximately 300 μL of Blood will be collected into EDTA tubes. Then exactly 240 μL of blood will be transferred into a micronic tube containing 10 μL of a solution (30 mg/mL NaF and 239 mg/mL Pefabloc) at each of the following time points post-dose (actual times will be recorded): 0.083, 0.25, 0.5, 1, 2, 4 and 8 hours after dosing. All blood samples will be thoroughly but gently mixed following collection and placed on wet ice. Blood will be centrifuged (3000 g for 10 min at approximately 4° C.) as soon as possible and two 50 μL aliquots of plasma will be transferred into micronic tubes. Residual blood will be discarded.
Plasma samples will be frozen at approximately −80° C. as soon as possible after preparation and stored until analysis.
Plasma samples will be assayed using a method based on protein precipitation with methanol followed by HPLC/MS-MS analysis with an optimized analytical method. Calibration standards (CS) and Quality control samples (QC) will be prepared on the day of analysis. Study samples, CS, QC and blanks will be spiked with an internal standard (IS) to improve the precision of the assay. Study samples will be analyzed together with CS, QC and blank samples (including also double blanks). From the calibration curve, the linear range of the analytical method will be determined and lower and upper limits of quantitation specified. Details of the conditions and methods used will be included in the report. All dosing solutions will be checked for accuracy and actual concentration will be reported.
The results for test substances in plasma will be subject to non-compartmental pharmacokinetic analysis using Phoenix WinNonlin 6.3 (see Section 8). The following parameters will be reported:
Calculated concentration of test item in the corresponding formulation (expressed as mg/mL). Dose levels (expressed as mg/kg). Actual collection times (expressed as hh:mm). Plasma concentrations (expressed as ng/mL). Quantitative information about 2 metabolites in Plasma. PK parameters (iv: Cmax, AUClast, AUCinf, CL, Vss, t1/2, if applicable; Abnormal clinical signs and relevant findings, if any.

Row | Structure (SMILES) | Ka ([1]; Average of replicates) | Kd ([1]; Average of replicates) | Ka ([1]; single replicate titration) | Kd ([1]; single replicate titration) | AUC(0-t) [2] | Cmax [2] | Tmax [2] | half-life [2] | AUC(0-inf) [2] | clearance [2] | Vd [2]
1 | N=C(N)NCCC[C@@H](NC(=O)[C@@H](N)Cc1ccccc1)C(=O)N[C@@H](Cc1ccccc1)C(=O)N[C@@H](CCCCN)C(N)=O [Example 1 non-deuterated, Phe-D-Arg-Phe-Lys-NH2, reference compound] (H-F[dR]FK-NH2) | 194000 M⁻¹ | 5.39 µM | 230000 M⁻¹ and 141000 M⁻¹ and 211000 M⁻¹ | 4.35 µM and 7.09 µM and 4.74 µM | 1950 ng·h/mL | 3200 ng/mL | 4.98 min | 30 min | 1960 ng·h/mL | 8.55 mL/min/kg | 0.27 L/kg
2 | [2H]C([2H])(N)C([2H])([2H])C([2H])([2H])C([2H])([2H])[C@H](NC(=O)[C@H](Cc1ccccc1)NC(=O)[C@@H](CCCNC(=N)N)NC(=O)[C@@H](N)Cc1ccccc1)C(N)=O [Example 1, Phe-D-Arg-Phe-(3,3,4,4,5,5,6,6-octadeuterium)-Lys-NH2] | 389000 M⁻¹ | 2.62 µM | 473000 M⁻¹ and 384000 M⁻¹ and 366000 M⁻¹ and 331000 M⁻¹ | 2.11 µM and 2.6 µM and 2.73 µM and 3.02 µM | 2300 ng·h/mL | 4300 ng/mL | 4.98 min | 27 min | 2310 ng·h/mL | 7.24 mL/min/kg | 0.21 L/kg
3 | Cc1cc(O)cc(C)c1C[C@H](NC(=O)[C@H](N)CCCNC(=N)N)C(=O)N[C@@H](CCCCN)C(=O)N[C@@H](Cc1ccccc1)C(N)=O [Example 11 non-deuterated] (H-[dR][Dmt]KF-NH2) |  |  |  |  | 2120 ng·h/mL | 2930 ng/mL | 4.98 min | 48 min | 2120 ng·h/mL | 7.97 mL/min/kg | 0.29 L/kg
4 | [2H]C([2H])(CN)C([2H])([2H])C[C@H](NC(=O)[C@H](Cc1c(C)cc(O)cc1C)NC(=O)[C@H](N)CCCNC(=N)N)C(=O)N[C@@H](Cc1ccccc1)C(N)=O [Example 11, D-Arg-DMT-(4,4,5,5-d4)-Lys-Phe-NH2] |  |  |  |  | 2920 ng·h/mL | 4680 ng/mL | 4.98 min | 35.3 min | 2940 ng·h/mL | 5.7 mL/min/kg | 0.23 L/kg
